Legend:
Format in all cases: cell-based
E. coli = E. coli growth in presence of FSY; conditions: 1 mM FSY in growth media
HeLa cells = assay: Toxicity and cell morphology of FSY in HeLa cells
293T cells = assay: Toxicity of FSY to 293T cells
[1] = tested on: HeLa-EGFP-182TAG reporter cells; assay: FACS analysis of Uaa incorporation into HeLa-EGFP-182TAG reporter cells; conditions: flow cytometry; positive control AzF with plasmid pIre-Azi3
Protocol: FSY incorporation into proteins in mammalian cells was tested. HeLa-EGFP-182TAG reporter cells were transfected with plasmid pMP-FSYRS-3×tRNA, which expresses FSYRS and tRNA^Pyl genes. Wang et al, Nat. Neurosci., 10:1063-1072 (2007). Suppression of the 182TAG codon would produce full-length EGFP rendering cells fluorescent. After transfection, cells were incubated with FSY of various concentrations at 37° C. for 24 or 48 h followed by flow cytometry. Strong EGFP fluorescence was measured from cells only when FSY was added. The fluorescence intensity increased with FSY concentration and incubation time. As a positive control, p-azido-L-phenylalanine (AzF) was incorporated into reporter cells in parallel using plasmid pIre-Azi3, which is the most efficient Uaa incorporation system in mammalian cells in our hands. […] No fluorescence signal was detected when FSY was not added.
FACS analysis of Uaa incorporation into HeLa-GFP-182TAG reporter cells: One day before transfection, 4.5×10^4 HeLa-EGFP-182TAG reporter cells (Wang et al, Nat. Neurosci., 10:1063-1072 (2007)) were seeded in a Greiner bio-one 24 well-cell culture dish containing 500 μL of DMEM media with 10% FBS, and incubated at 37° C. in a CO2 incubator. […] The cells were resuspended in 300 μL of FACS buffer (1×PBS, 2% FBS, 1 mM EDTA, 0.1% sodium azide, 0.28 μM DAPI) and analyzed by BD LSRFortessa™ cell analyzer.

N[C@@H](Cc1ccc(OS(=O)(=O)F)cc1)C(=O)O [FSY, fluorosulfate-L-tyrosine]
cytotoxicity (E. coli growth) (E. coli): no obvious cytotoxicity
toxicity to HeLa cells (HeLa cells; FSY incubation 24 or 48 h): no obvious toxicity
cell morphology (fluorescence confocal microscopy) (HeLa cells; HeLa-EGFP-182TAG reporter cells in the presence of FSY): cell morphology remained normal
toxicity to 293T cells (293T cells): no obvious toxicity
Uaa incorporation (EGFP fluorescence) relative to the AzF level [1]: 76%
